Test results taken from US20170335402A1, “DOT1L INHIBITORS AND USES THEREOF” (Baylor College of Medicine, priority 2014, published 2017).
“Also recorded” adds a separate entry of the source.

Tests used:
Format in all cases: cell-based, human
OCI AML2 cells [1] = test: Cell cycle analysis by flow cytometry for DNA content (PI); conditions: increased sub-G1, decreased S and G2/M, dose- and time-dependent
Experimental: (§1) Cells were harvested at each re-plating of the cell proliferation assay described above then split for simultaneous analysis of apoptosis, cell cycle, and differentiation. Apoptosis was determined by Annexin V binding (AVB) flow cytometry assay. The harvested cells were re-suspended in 1×AVB buffer, stained with APC-conjugated Annexin V (BD), then analyzed by flow cytometry. For cell cycle analysis, cells were pelleted, washed in PBS with 0.5% bovine serum albumin, then fixed in 70% ice-cold methanol. The fixed cells were then incubated in PBS with 100 μg/mL RNAse (Invitrogen) for 15 minutes in a 37° C. water bath. Propidium iodide (PI) in PBS at a final concentration of 25 μg/mL was then added and the cells were analyzed by flow cytometry. For differentiation, cells were pelleted, and stained with APC-conjugated CD14 then washed and re-suspended in media containing PI to exclude dead cells. All analyses were performed using an LSR II flow cytometer (BD biosciences) and the data were analyzed using FlowJo (TreeStar, V8.8.7).

OCI AML3 cells [2] = test: as above; conditions: increased sub-G1, decreased S and G2/M, dose- and time-dependent
Experimental: as §1

[3] = system: primary AML patient samples with DNMT3A mutation; test: Flow cytometry of cells isolated from CFC plates (differentiation); conditions: cells isolated from culture plates after CFC assay; 3 μM
Experimental: Viably frozen human primary AML samples were thawed quickly and placed in fresh RPMI 1640 (Invitrogen) plus 10% FBS, 1% L-glutamine, and 1% pen strep. After recovery for 2-3 hours in media, viable cells were counted by trypan blue exclusion and plated in triplicate (5,000 viable cells/plate) in human H4034 methylcellulose media (StemCell Technologies) with 3 μM EPZ00477 or DMSO vehicle control. After 12-14 days, plates were scored for colony counts and colony morphology. Cells were then isolated from the plates, stained for CD45, CD14, CD13 and analyzed by flow cytometry. Cell morphology was examined by H&E staining of cytospins of isolated cells prepared using the CytoPro cytocentrifuge.

[4] = system: H3K79me2 in OCI AML3 cells; test: Immunoblot analysis of cellular H3K79 methylation
OCI AML2 cells [5] = test: Cell proliferation and viability assay (trypan blue exclusion)
Experimental: (§2) Patient AML cell lines were plated in media and treated with the DOT1L inhibitors SYC-522, EPZ004777 or DMSO control was added at the indicated concentrations. Cells counted, washed and re-plated in fresh compound at equal densities every 3-4 days for 12 days. Cell growth and viability were followed by serial cell counts and trypan blue exclusion staining.
(§3) Exponentially growing cells were plated, in triplicate, in 24-well plates at a density of 2×10^5/mL in a final volume of 1 mL. For dose dependent assays, cells were incubated in increasing concentrations of SYC522 up to 10 μM or EPZ004777 up to 24 μM or DMSO control. For time-dependent assays, cells were incubated in 3 μM EPZ004777 or DMSO control. Every 2-3 days media and compound was replaced and cells were split back to a density of 2×10^5/mL. At each re-plating viable cells number was determined by trypan blue exclusion. Total cell number is expressed as split-adjusted viable cells per mL.

OCI AML3 cells [6] = test: as above
Experimental: as §2, §3

[7] = system: normal CD34+ cells isolated from cord blood; test: Colony-forming cell assay; conditions: 3 μM

CC(C)N(CCCNC(=O)Nc1ccc(C(C)(C)C)cc1)C[C@H]1O[C@@H](n2ccc3c(N)ncnc32)[C@H](O)[C@@H]1O [EPZ004777]
cell cycle progression (DNA content) (OCI AML2 cells [1]): cell cycle arrest
cell cycle progression (DNA content) (OCI AML3 cells [2]): cell cycle arrest
terminal differentiation (flow cytometry, live CD45+ cells) [3]: induces terminal differentiation
cellular H3K79 methylation [4]: inhibited in a dose- and time-dependent fashion
cell proliferation (OCI AML2 cells [5]; OCI AML2 (non-R882 DNMT3A mutant), 3 μM, 14 days time course): dose- and time-dependent inhibition of proliferation; also recorded: only modestly slowed; also recorded: significant decrease in cell proliferation
cell growth / proliferation (OCI AML2 cells [5]; OCI AML2, escalating doses, 10-14 days): inhibited growth in a dose-dependent fashion
cell proliferation (OCI AML3 cells [6]; OCI AML3 (R882 DNMT3A mutant), 3 μM, 14 days time course): dose- and time-dependent inhibition of proliferation; also recorded: profoundly inhibited beginning around 7 days of treatment; also recorded: significant decrease in cell proliferation
cell growth / proliferation (OCI AML3 cells [6]; OCI AML3, escalating doses, 10-14 days): inhibited growth in a dose-dependent fashion
colony-forming capacity (CFC) [7]: did not significantly impact
